Source: patent publication US10792287B2, “Methods for treating mitochondrial diseases” (The Regents of the University of California, priority 2015, dated 2020)

Tests used:
Ndufs4 knockout mice = test: Visual cliff test; type: in vivo, mouse; conditions: P21-P35 treatment; papaverine 20 mg/kg, zolpidem 20 mg/kg, rapamycin 8 mg/kg i.p.; idebenone 200 mg/kg oral
[1] = system: permeabilized LHON mutant (11778 G>A) cells; test: Complex I-driven ATP synthesis, drug applied to permeabilized LHON mutant cells; type: cell-based; conditions: permeabilized cells (30 min) instead of intact cells (2 h); rotenone 0.03 μM
Description: Cells were permeabilized with streptolysin O and mitochondrial complex I-driven ATP synthesis was measured in presence of complex I substrates (malate/pyruvate). […] Intact cells were permeabilized with streptolysin O and mitochondrial complex I-driven ATP synthesis was measured in presence of complex I substrates (malate/pyruvate).

LHON cybrids (11778 G>A) = test: Complex I-driven ATP synthesis in rotenone-inhibited LHON mutant cybrids (luciferase-based, high-throughput screen and concentration-response); type: cell-based
Ndufs4 KO mice [2] = test: Starburst amacrine cell count (ChAT staining of whole retina); type: in vivo, mouse; conditions: two weeks (P21-P35) intraperitoneal injections
Description: 20× confocal images of whole retina stained with ChAT (marker of starburst amacrine cells) from wild type (FIG. 22A), Ndusf4 KO vehicle treated (FIG. 22B), Ndufs4 KO papaverine treated (FIG. 22C), Ndufs4 KO zolpidem treated (FIG. 22D), and Ndufs4 KO rapamycin treated (FIG. 22E) are shown.
(§1) Wild type and Ndufs4 knockout mice were placed in one of five groups: vehicle, papaverine (20 mg/kg), zolpidem (20 mg/kg), rapamycin (8 mg/kg), or idebenone (200 mg/kg). For papaverine, zolpidem, and rapamycin, drug was dissolved in DMSO which was diluted in 5% PEG-400/5% Tween-20 in PBS. Vehicle contained all components except for the drug. The solution was then sterile filtered and intraperitoneal injections were performed using a 30 gauge needle. Idebenone was administered as a jelly and consumed orally.

control healthy cybrid = test: Mitochondrial copy number (MT-TL1/B2M ratio), control cybrids; type: cell-based; conditions: control cells; 24 hrs exposure
Description: (§2) FIGS. 14A-14C illustrate the effect of drugs on the mitochondrial copy number. Difference of mitochondrial copy number between 11778 (G>A) mutant and control cybrids (FIG. 14A). Effect of zolpidem and papaverine on the control healthy cybrid mitochondrial copy number (FIG. 14B) and 11778 (G>A) mutant cybrid mitochondrial copy number (FIG. 14C). Cells were treated with either vehicle or one of the drugs at specified concentration for 24 h. The cells were harvested after 24 h and the ratio between MT-TL1 and B2M was determined. Data is presented as average relative fold change±std. deviation from three independent observations. Statistical significance (p<0.05) is denoted by ‘*’ and was determined by one way ANOVA and Dunett's post hoc test.

[3] = system: 11778 (G>A) mutant cybrid; test: Mitochondrial copy number (MT-TL1/B2M ratio), mutant cybrids; type: cell-based; conditions: LHON mutant cells [11778(G>A)]; 24 hrs exposure
Description: as §2

[4] = system: innate immune/inflammatory response in Ndufs4 KO retina; test: Retinal gene expression of innate immune and inflammatory markers after drug treatment (Example 3); type: in vivo, mouse; conditions: Ndufs4 KO mice; doses as in drug formulation
Description: The graphs represent RNA expression of B2m (FIG. 21A), Tlr2 (FIG. 21B), Cxc110 (FIG. 21C), Cc15 (FIG. 21D), and Aif1 (FIG. 21E) in the wild type and Ndufs4 knockout retina. Bars represent mean delta Ct values normalized to housekeeping genes, Actb and Mapk1. Error bars represent standard error of the mean. Statistical significance was determined by two-tailed student's t test. * P<0.05, ** P<0.01, **** P<0.0001.
as §1
We have previously shown that inflammatory gene expression of Aif1, Tlr2, B2m, Cc15, and Cxc110 are all elevated in the Ndufs4 KO mouse compared to wild type by more than 3-fold, indicating an inflammatory pathomechanism of mitochondrial blindness (Yu et al., Proc Natl Acad Sci USA, 2015, 112(42): E5689-98). […] Papaverine, zolpidem, rapamycin, and idebenone were administered to Ndufs4 KO mice to determine whether their protection of vision (FIG. 20) was through an anti-inflammatory mechanism of action. […] Thus, papaverine, zolpidem, and rapamycin appear to protect mitochondrial loss of vision through an antiinflammatory mechanism.

Ndufs4 KO mice [5] = test: Microglia activation (Iba1 staining of whole mount retinas); type: in vivo, mouse; conditions: two weeks (P21-P35) intraperitoneal treatment
control cybrids = test: Papaverine response in rotenone-inhibited control cybrids; type: cell-based
Description: FIG. 19A depicts response to papaverine in control cybrids. FIG. 19B depicts response to papaverine in mutant cybrids.

`COc1ccc(Cc2nccc3cc(OC)c(OC)cc23)cc1OC` [papaverine] was tested, and the “visual function (median # edge detections)” value (Ndufs4 knockout mice) was “visual function was preserved”, the “complex I driven ATP production in permeabilized cells” value [1] was “inhibited complex I driven ATP production” and the fold induction at 10 µM (LHON cybrids (11778 G>A); 20 h, read-out: Fold change of ATP synthesis rate greater than 2x Median Absolution Deviation) was 2.4. For the same molecule, the “reversal of rotenone sensitivity of complex I-driven ATP synthesis” value (LHON cybrids (11778 G>A); different concentrations of drug 22 h, then rotenone 0.03 μM 2 h) was “dose-dependently reversed the rotenone sensitivity”, the “protective effect with short treatment of intact cells” value (LHON cybrids (11778 G>A); intact cells treated with papaverine and rotenone 0.03 μM for 2 hrs) was “protective effect of papaverine was observed” and the “concentration-dependent reversal of rotenone-induced ATP synthesis inhibition, comparison of the two hits” value (LHON cybrids (11778 G>A); papaverine vs zolpidem) was “stronger than Zolpidem”. The “starburst amacrine cell loss” value (Ndufs4 KO mice [2]) was “less cell loss than vehicle-treated Ndufs4 KO mice”, the “ratio of mtDNA/nDNA” value (control healthy cybrid) was “did not significantly change the ratio of mtDNA/nDNA” and the “ratio of mtDNA/nDNA” value [3] was “did not significantly change the ratio of mtDNA/nDNA”. For the same molecule, the “innate immune/inflammatory gene expression (B2m, Tlr2, Cxcl10, Ccl5, Aif1) in retina” value [4] was “significantly inhibited a portion of the innate immune/inflammatory response”, the microglia activation (Ndufs4 KO mice [5]) was “significant inhibition of microglia activation” and the “complex 1-dependent ATP synthesis in normal cells inhibited by rotenone” value (control cybrids) was “dose dependently stimulates complex 1-dependent ATP synthesis”.
